This note sets out measurements from paper PMC7413254 (Nature Communications, 2020).

What all share (type): cell-based
Assay [1] addresses T1, PfCRT^Ecu1110 (Plasmodium falciparum, UniProt Q9N623, A220S/I356L/K76T/N326D). As to the kind of experiment: [3H]CQ uptake into Xenopus oocytes, cis-inhibition by unlabelled solute. The settings on record: for PfCRT-mediated [3H]CQ transport, cis-inhibition (% PfCRTEcu1110 control): PfCRTEcu1110 oocytes, background [3H]CQ accumulation subtracted, normalised to oocyte type control; for [3H]CQ transport (% PfCRTEcu1110 control), cis-inhibition, PfCRTEcu1110: PfCRT-mediated component (background subtracted), sheet title says normalised to PfCRTDd2 control, mean ± SEM, SEM. The gist of the method:
(§1)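 Using pH 5.5 ND96 at 27.5 °C, uptake is followed for 1.5 h, stopped with ice-cold buffer, and quantified as accumulated radioactivity per oocyte after SDS lysis.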

Assay [2] concerns the target T2, PfCRT^Dd2 (Plasmodium falciparum, UniProt Q9N623, A220S/I356T/K76T/M74I/N326S/N75E/Q271E/R371I). The assay is described as above. The settings on record: PfCRTDd2 oocytes, background [3H]CQ accumulation subtracted, normalised to oocyte type control. Summed up: as §1
Another assay has as its target PfCRT^3D7 (Plasmodium falciparum, UniProt Q8IBZ9). As to the kind of experiment: cell-based. Conditions: PfCRT3D7 oocytes, normalised to oocyte type control. Summed up:
(§2)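 Oocytes (ten per treatment, ≥4 independent frogs/days) were preloaded by injecting VF-6 in 25 nL ND96 at pH 5.0, 5.5, 6.0 or 7.0, or Na^+-free choline buffer, then uptake run 1.5 h, 27.5 °C, ND96 pH 5.5 by default. Internal concentrations assumed ~400 nL oocyte volume.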

In assay [3] the target is T1, PfCRT^Ecu1110. As to the kind of experiment: cell-based. The settings on record: for PfCRT-mediated [3H]CQ transport, trans-stimulation (% PfCRTEcu1110 control): PfCRTEcu1110 oocytes, normalised to oocyte type control; for [3H]CQ transport (% PfCRTDd2 control), trans-stimulation, PfCRTEcu1110: PfCRT-mediated component (background subtracted), sheet title says normalised to PfCRTDd2 control, mean ± SEM, SEM. Summed up:
as §2

Assay [4] addresses T2, PfCRT^Dd2. In words: cell-based. Conditions: for PfCRT-mediated [3H]CQ transport, trans-stimulation (% PfCRTDd2 control): PfCRTDd2 oocytes, normalised to oocyte type control; for [3H]CQ transport (% PfCRTDd2 control), trans-stimulation, PfCRTDd2: PfCRT-mediated component (background subtracted), mean ± SEM, SEM. Summed up:
as §2

Setting [5] is: [test solute]i = 5 mM (intracellular).
Where [6] appears, read: [test solute]i = 45 mM (intracellular; 30 mM for some solutes due to solubility).
[7] abbreviates: [test solute]i = 5 mM (injected).
[8] abbreviates: [test solute]i = 45 mM (30 mM for some solutes due to solubility).

T1 sequence (Q9N623 whole entry A220S/I356L/K76T/N326D): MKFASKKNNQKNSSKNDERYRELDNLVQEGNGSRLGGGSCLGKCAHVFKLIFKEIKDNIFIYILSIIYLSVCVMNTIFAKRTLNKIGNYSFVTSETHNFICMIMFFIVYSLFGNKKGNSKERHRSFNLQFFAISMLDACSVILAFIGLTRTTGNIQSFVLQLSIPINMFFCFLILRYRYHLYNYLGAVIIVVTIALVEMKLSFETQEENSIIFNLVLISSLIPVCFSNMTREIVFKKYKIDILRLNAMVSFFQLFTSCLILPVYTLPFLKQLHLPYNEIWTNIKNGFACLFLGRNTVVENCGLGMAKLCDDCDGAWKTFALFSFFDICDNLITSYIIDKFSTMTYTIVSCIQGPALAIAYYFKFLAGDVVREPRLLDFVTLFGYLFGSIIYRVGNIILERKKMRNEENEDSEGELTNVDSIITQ
PfCRT^3D7, sequence (Q8IBZ9 59-398): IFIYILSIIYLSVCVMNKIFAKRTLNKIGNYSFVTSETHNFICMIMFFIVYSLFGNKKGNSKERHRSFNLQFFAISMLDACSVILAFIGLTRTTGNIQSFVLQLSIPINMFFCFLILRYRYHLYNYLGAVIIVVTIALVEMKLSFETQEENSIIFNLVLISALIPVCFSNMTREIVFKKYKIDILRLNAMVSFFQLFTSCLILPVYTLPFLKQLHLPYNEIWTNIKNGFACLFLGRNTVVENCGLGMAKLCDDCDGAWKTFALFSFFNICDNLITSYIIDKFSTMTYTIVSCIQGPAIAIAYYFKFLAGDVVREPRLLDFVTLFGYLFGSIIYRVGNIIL
T2 sequence (Q9N623 whole entry A220S/I356T/K76T/M74I/N326S/N75E/Q271E/R371I): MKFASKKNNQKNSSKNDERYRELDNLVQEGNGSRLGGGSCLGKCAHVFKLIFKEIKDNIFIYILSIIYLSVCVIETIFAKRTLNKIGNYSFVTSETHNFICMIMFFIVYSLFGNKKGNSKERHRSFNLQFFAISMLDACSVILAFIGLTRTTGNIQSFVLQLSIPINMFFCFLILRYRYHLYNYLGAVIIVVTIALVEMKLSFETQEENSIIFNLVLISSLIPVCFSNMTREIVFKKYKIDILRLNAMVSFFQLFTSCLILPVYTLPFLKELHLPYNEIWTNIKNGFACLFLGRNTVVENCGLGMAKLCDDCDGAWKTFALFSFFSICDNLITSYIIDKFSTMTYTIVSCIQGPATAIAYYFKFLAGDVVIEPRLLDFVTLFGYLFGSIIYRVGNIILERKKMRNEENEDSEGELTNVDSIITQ

Take GLAHL [GL-5]: the “PfCRT-mediated [3H]CQ transport, cis-inhibition (% PfCRTEcu1110 control)” value on PfCRT^Ecu1110 [1] ([test solute] = 0.5 mM) was 68 ± 2.5 % PfCRTEcu1110 control; at PfCRT^Ecu1110 [1] ([test solute] = 1 mM), 58 ± 3.5 % PfCRTEcu1110 control; on PfCRT^Ecu1110 [1] ([test solute] = 2 mM), 28 ± 2.0 % PfCRTEcu1110 control. In addition, the “[3H]CQ transport (% PfCRTEcu1110 control), cis-inhibition, PfCRTEcu1110” value at PfCRT^Ecu1110 [1] ([test solute] = 1 mM) came to 18 ± 0.1 % PfCRTEcu1110 control; at PfCRT^Ecu1110 [1] ([test solute] = 2 mM), 9.0 ± 0.01 % PfCRTEcu1110 control. Moreover, the “PfCRT-mediated [3H]CQ transport, cis-inhibition (% PfCRTDd2 control)” value on PfCRT^Dd2 [2] ([test solute] = 0.5 mM) was found to be 62 ± 1.1 % PfCRTDd2 control; at PfCRT^Dd2 [2] ([test solute] = 1 mM), 50 ± 3.5 % PfCRTDd2 control; on PfCRT^Dd2 [2] ([test solute] = 2 mM), 20 ± 1.3 % PfCRTDd2 control. Moreover, the “PfCRT-mediated [3H]CQ transport, trans-stimulation (% PfCRT3D7 control)” value (shortened to “PfCRT-mediated … (% PfCRT3D7 control)”) stood at 97 ± 3.5 % PfCRT3D7 control on PfCRT^3D7 (setting [5]) and 94 ± 4.6 % PfCRT3D7 control on PfCRT^3D7 (setting [6]). Further, the “PfCRT-mediated [3H]CQ transport, trans-stimulation (% PfCRTEcu1110 control)” value is listed as 96 ± 4.1 % PfCRTEcu1110 control on PfCRT^Ecu1110 [3] (setting [5]) and 99 ± 3.6 % PfCRTEcu1110 control at PfCRT^Ecu1110 [3] (setting [6]). Also, the “[3H]CQ transport (% PfCRTDd2 control), trans-stimulation, PfCRTEcu1110” value at PfCRT^Ecu1110 [3] (setting [7]) was 29 ± 1.4 % PfCRTEcu1110 control; at PfCRT^Ecu1110 [3] (setting [8]), 30 ± 1.3 % PfCRTEcu1110 control. Also, the “PfCRT-mediated [3H]CQ transport, trans-stimulation (% PfCRTDd2 control)” value at PfCRT^Dd2 [4] (setting [5]) was determined as 98 ± 4.1 % PfCRTDd2 control; at PfCRT^Dd2 [4] (setting [6]), 98 ± 3.3 % PfCRTDd2 control. The “[3H]CQ transport (% PfCRTDd2 control), trans-stimulation, PfCRTDd2” value worked out at 98 ± 4.1 % PfCRTDd2 control at PfCRT^Dd2 [4] (setting [7]) and 98 ± 3.3 % PfCRTDd2 control at PfCRT^Dd2 [4] (setting [8]).

With GTFAT [GT-5], the “PfCRT-mediated [3H]CQ transport, cis-inhibition (% PfCRTEcu1110 control)” value was found to be 51 ± 1.1 % PfCRTEcu1110 control on PfCRT^Ecu1110 [1] ([test solute] = 0.5 mM), 41 ± 2.5 % PfCRTEcu1110 control on PfCRT^Ecu1110 [1] ([test solute] = 1 mM) and 30 ± 0.4 % PfCRTEcu1110 control on PfCRT^Ecu1110 [1] ([test solute] = 2 mM). Further, the entries for the “[3H]CQ transport (% PfCRTEcu1110 control), cis-inhibition, PfCRTEcu1110” value at PfCRT^Ecu1110 [1] ([test solute] = 1 mM) and at PfCRT^Ecu1110 [1] ([test solute] = 2 mM) were 13 ± 0.3 % PfCRTEcu1110 control and 9.0 ± 0.1 % PfCRTEcu1110 control, respectively. For the same substance, the “PfCRT-mediated [3H]CQ transport, cis-inhibition (% PfCRTDd2 control)” value at PfCRT^Dd2 [2] ([test solute] = 0.5 mM) worked out at 62 ± 2.0 % PfCRTDd2 control; on PfCRT^Dd2 [2] ([test solute] = 1 mM), 50 ± 2.2 % PfCRTDd2 control; at PfCRT^Dd2 [2] ([test solute] = 2 mM), 20 ± 1.1 % PfCRTDd2 control. In addition, the “PfCRT-mediated … (% PfCRT3D7 control)” value on PfCRT^3D7 (setting [5]) worked out at 96 ± 3.5 % PfCRT3D7 control; on PfCRT^3D7 (setting [6]), 96 ± 3.4 % PfCRT3D7 control. The “PfCRT-mediated [3H]CQ transport, trans-stimulation (% PfCRTEcu1110 control)” value amounted to 98 ± 4.6 % PfCRTEcu1110 control on PfCRT^Ecu1110 [3] (setting [5]) and 98 ± 4.4 % PfCRTEcu1110 control at PfCRT^Ecu1110 [3] (setting [6]). For the same substance, the “[3H]CQ transport (% PfCRTDd2 control), trans-stimulation, PfCRTEcu1110” value on PfCRT^Ecu1110 [3] (setting [7]) was 30 ± 1.6 % PfCRTEcu1110 control; on PfCRT^Ecu1110 [3] (setting [8]) it was 30 ± 1.7 % PfCRTEcu1110 control. The figures for the “PfCRT-mediated [3H]CQ transport, trans-stimulation (% PfCRTDd2 control)” value at PfCRT^Dd2 [4] (setting [5]) and at PfCRT^Dd2 [4] (setting [6]) were 96 ± 3.5 % PfCRTDd2 control and 96 ± 4.2 % PfCRTDd2 control, respectively. Further, the “[3H]CQ transport (% PfCRTDd2 control), trans-stimulation, PfCRTDd2” value on PfCRT^Dd2 [4] (setting [7]) was found to be 96 ± 3.5 % PfCRTDd2 control; on PfCRT^Dd2 [4] (setting [8]) it was 96 ± 4.2 % PfCRTDd2 control.

Take HAGEYG [HG-6]: the “PfCRT-mediated [3H]CQ transport, cis-inhibition (% PfCRTEcu1110 control)” value on PfCRT^Ecu1110 [1] ([test solute] = 0.5 mM) was 35 ± 4.6 % PfCRTEcu1110 control; on PfCRT^Ecu1110 [1] ([test solute] = 1 mM), 27 ± 4.1 % PfCRTEcu1110 control. The results for the “[3H]CQ transport (% PfCRTEcu1110 control), cis-inhibition, PfCRTEcu1110” value at PfCRT^Ecu1110 [1] ([test solute] = 0.5 mM), at PfCRT^Ecu1110 [1] ([test solute] = 1 mM) and at PfCRT^Ecu1110 [1] ([test solute] = 2 mM) were 11 ± 0.5 % PfCRTEcu1110 control, 9.0 ± 0.05 % PfCRTEcu1110 control and 4.0 ± 0.01 % PfCRTEcu1110 control, respectively. Further, the “PfCRT-mediated [3H]CQ transport, cis-inhibition (% PfCRTDd2 control)” value at PfCRT^Dd2 [2] ([test solute] = 0.5 mM) is 36 ± 2.1 % PfCRTDd2 control; at PfCRT^Dd2 [2] ([test solute] = 1 mM), 22 ± 0.9 % PfCRTDd2 control; at PfCRT^Dd2 [2] ([test solute] = 2 mM), 9.3 ± 0.1 % PfCRTDd2 control. Further, the “PfCRT-mediated … (% PfCRT3D7 control)” value on PfCRT^3D7 (setting [5]) was 136 ± 3.6 % PfCRT3D7 control; at PfCRT^3D7 (setting [6]), 190 ± 4.2 % PfCRT3D7 control. The “PfCRT-mediated [3H]CQ transport, trans-stimulation (% PfCRTEcu1110 control)” value at PfCRT^Ecu1110 [3] (setting [5]) was found to be 98 ± 2.4 % PfCRTEcu1110 control; at PfCRT^Ecu1110 [3] (setting [6]) it was 96 ± 3.3 % PfCRTEcu1110 control. In addition, the “[3H]CQ transport (% PfCRTDd2 control), trans-stimulation, PfCRTEcu1110” value at PfCRT^Ecu1110 [3] (setting [7]) is listed as 30 ± 1.5 % PfCRTEcu1110 control; at PfCRT^Ecu1110 [3] (setting [8]), 29 ± 1.3 % PfCRTEcu1110 control. Moreover, the figures for the “PfCRT-mediated [3H]CQ transport, trans-stimulation (% PfCRTDd2 control)” value on PfCRT^Dd2 [4] (setting [5]) and at PfCRT^Dd2 [4] (setting [6]) were 101 ± 3.3 % PfCRTDd2 control and 98 ± 2.5 % PfCRTDd2 control, respectively. Besides, the “[3H]CQ transport (% PfCRTDd2 control), trans-stimulation, PfCRTDd2” value on PfCRT^Dd2 [4] (setting [7]) was determined as 101 ± 3.3 % PfCRTDd2 control; at PfCRT^Dd2 [4] (setting [8]), 98 ± 2.5 % PfCRTDd2 control.

For HFDLS [HS-5], the figures for the “PfCRT-mediated [3H]CQ transport, cis-inhibition (% PfCRTEcu1110 control)” value at PfCRT^Ecu1110 [1] ([test solute] = 0.5 mM) and at PfCRT^Ecu1110 [1] ([test solute] = 2 mM) were 20 ± 1.3 % PfCRTEcu1110 control and 4.3 ± 0.1 % PfCRTEcu1110 control, respectively. Besides, the “[3H]CQ transport (% PfCRTEcu1110 control), cis-inhibition, PfCRTEcu1110” value turned out to be 3.0 ± 0.04 % PfCRTEcu1110 control at PfCRT^Ecu1110 [1] ([test solute] = 1 mM) and 1.0 ± 0.06 % PfCRTEcu1110 control at PfCRT^Ecu1110 [1] ([test solute] = 2 mM). Moreover, the figures for the “PfCRT-mediated [3H]CQ transport, cis-inhibition (% PfCRTDd2 control)” value at PfCRT^Dd2 [2] ([test solute] = 0.5 mM), at PfCRT^Dd2 [2] ([test solute] = 1 mM) and at PfCRT^Dd2 [2] ([test solute] = 2 mM) were 20 ± 0.1 % PfCRTDd2 control, 9 ± 0.2 % PfCRTDd2 control and 3.2 ± 0.1 % PfCRTDd2 control, respectively. For the same substance, the “PfCRT-mediated … (% PfCRT3D7 control)” value was found to be 139 ± 4.1 % PfCRT3D7 control on PfCRT^3D7 (setting [5]) and 166 ± 3.2 % PfCRT3D7 control on PfCRT^3D7 (setting [6]). Moreover, the “PfCRT-mediated [3H]CQ transport, trans-stimulation (% PfCRTEcu1110 control)” value is 120 ± 2.1 % PfCRTEcu1110 control at PfCRT^Ecu1110 [3] (setting [5]) and 131 ± 1.8 % PfCRTEcu1110 control at PfCRT^Ecu1110 [3] (setting [6]). For the same substance, the “[3H]CQ transport (% PfCRTDd2 control), trans-stimulation, PfCRTEcu1110” value at PfCRT^Ecu1110 [3] (setting [7]) came out at 36 ± 1.3 % PfCRTEcu1110 control; at PfCRT^Ecu1110 [3] (setting [8]), 40 ± 1.4 % PfCRTEcu1110 control. The “PfCRT-mediated [3H]CQ transport, trans-stimulation (% PfCRTDd2 control)” value on PfCRT^Dd2 [4] (setting [5]) is given as 100 ± 3.2 % PfCRTDd2 control; at PfCRT^Dd2 [4] (setting [6]), 112 ± 1.1 % PfCRTDd2 control. In addition, the figures for the “[3H]CQ transport (% PfCRTDd2 control), trans-stimulation, PfCRTDd2” value at PfCRT^Dd2 [4] (setting [7]) and on PfCRT^Dd2 [4] (setting [8]) were 100 ± 3.2 % PfCRTDd2 control and 112 ± 1.1 % PfCRTDd2 control, respectively.
